Source: PMC5095062, “The novel choline kinase inhibitor ICL-CCIC-0019 reprograms cellular metabolism and inhibits cancer cell growth” (Oncotarget, 2016)
Read-outs that look alike come from different tables or passages of the source.

What was measured:
A549 cells = test: Comparative antiproliferative activity; type: cell-based, human
Description: (§1) Enzymatic kinase activity, [^3H]choline to [^3H]PCho conversion and growth inhibition assays was conducted as previously described. [^3H]choline incorporation into soluble and lipid fractions was determined by a pulse-chase experiment. HCT116 cells were seeded at a density of 3 × 10^5 cell per well into 12-well plates and incubated overnight. Cells were treated with 1 or 10 μM ICL-CCIC-0019 for 1 h and pulsed in presence of inhibitor with 18.5 kBq/mL [^3H]choline chloride in 500 μL for 1 additional h. Cells were briefly rinsed with RPMI and incubated with fresh, non-radioactive medium for 6 h. Metabolites were extracted as described elsewhere, but additionally the radioactivity of the choline-containing and chloroform (lipid-containing) fractions was measured. Uptake of radiolabeled metabolite-tracers was measured as described elsewhere. Antiproliferative activity was measured after 72 h continuous exposure to inhibitors by sulforhodamine B (SRB) assay as described elsewhere. Apoptosis was determined using Caspase 3/7 Glo assay (Promega) according to the manufacturer's instructions.

2 normal cell lines = test: Antiproliferative activity (SRB), initial cell line screen; type: cell-based; conditions: Homo sapiens; normal cells
Description: as §1

8 cancer cell lines = test: as above; type: cell-based; conditions: Homo sapiens
Description: as §1

HCT116 cells [1] = test: Metabolomics (LC-MS of soluble metabolites); type: cell-based, human; conditions: for change of intracellular PCho pool: 24 h
Description: Unlabeled metabolite analyses were conducted as previously reported. HCT116 cells cultured overnight in 6-well plates were treated with vehicle, 1 or 10 μM ICL-CCIC-0019 for 24 h prior to extraction. For flux experiments, HCT116 cells were plated onto 6-well plates and cultured overnight. The cells were then grown in medium containing vehicle or 1 μM ICL-CCIC-0019 for 24 h. The medium was then replaced with that containing ^13C metabolites (5 mM ^13C6-glucose or 0.2 mM ^13C2-acetate) and inhibitor for various indicated time points. Metabolites were extracted with a cold solution (−20°C) composed of methanol, acetonitrile, and water (5:3:2). The insoluble material was immediately pelleted in a cooled (0°C) centrifuge at 16,000 × g for 15 min and the supernatant was collected for subsequent LC-MS analysis. A ZIC-pHILIC column (4.6 mm × 150 mm, guard column 2.1 mm × 20 mm, Merck) was used for LC separation using formic acid, water, and acetonitrile as component of the mobile phase. Metabolites were detected using an Exactive mass spectrometer (ThermoFisher).

HCT116 cells [2] = test: [3H]acetate uptake; type: cell-based, human
Description: as §1

HCT116 cells [3] = test: TMRE mitochondrial membrane potential assay; type: cell-based, human; conditions: 10 μM, 24 h
Description: HCT116 cells were cultured as above with indicated inhibitors and subject to the tetramethylrhodamine ethyl ester dye method (TMRE) membrane potential assay according to the manufacturers instruction (Abcam ab113852) prior to FACS analysis.

[4] = target: recombinant human Δ49N CHKA2 (Homo sapiens, UniProt P35790); conditions: cited from earlier work
recombinant human Δ49N CHKA2, sequence (P35790 50-457 limits assumed, stated change not applied): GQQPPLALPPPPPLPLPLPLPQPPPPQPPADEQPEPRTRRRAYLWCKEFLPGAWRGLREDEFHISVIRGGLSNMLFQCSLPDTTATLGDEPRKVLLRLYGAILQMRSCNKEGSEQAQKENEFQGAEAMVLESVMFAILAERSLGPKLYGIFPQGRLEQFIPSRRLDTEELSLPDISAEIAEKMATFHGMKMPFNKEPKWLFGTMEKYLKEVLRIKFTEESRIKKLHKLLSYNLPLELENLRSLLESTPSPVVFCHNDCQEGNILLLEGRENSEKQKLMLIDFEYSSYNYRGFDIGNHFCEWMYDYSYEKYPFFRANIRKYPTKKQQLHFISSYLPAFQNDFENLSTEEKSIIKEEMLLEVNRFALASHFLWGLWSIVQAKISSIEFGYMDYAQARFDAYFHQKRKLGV

HCT116 xenografts = test: Kinetic modeling of [18F]-D4-FCH PET data; type: in vivo, BALB/c nude mice
Text: We employed kinetic modeling to further characterize ICL-CCIC-0019-mediated choline kinase inhibition in vivo. Whereas normalized tissue uptake values reflect tracer concentration in a 3-dimensional region of interest, kinetic modeling accounts for tissue uptake relative to plasma. A two-tissue irreversible compartmental model, as previously reported, was employed with the hypothesis that k3 would represent the rate by which the tracer is phosphorylated by choline kinase, (Supplementary Figure S2C). Although this enzymatic reaction is in principle reversible, it was assumed that the high dependency of cancer cells to incorporate choline made it unlikely that catalytic hydrolysis of PCho prevails. Best fits and more physiological parameters were obtained with a 3k (excluding k4) instead of a 4k model. […] In all examined tissues, the blood volume Vb decreased initially after treatment (Supplementary Figure S2D). These perfusion deficits were more pronounced and persistent in tumor compared to liver and kidney. To rule out that these kinetic changes are solely due to choline transport inhibition, we analyzed the choline metabolites of [^18F]-D4-FCH in HCT116 cells treated with ICL-CCIC-0019. As expected for CHKA inhibition, ICL-CCIC-0019 decreased the [^18F]-D4-PCho peak, changing the relative ratio of [^18F]-D4-Cho:[^18F]-D4-PCho from 72:28 in the vehicle control to 87:13 in the treatment group (Supplementary Figure S2E–S2F).
Kinetic analysis of PET data was performed applying a standard two-tissue irreversible compartmental model described in detail elsewhere.

AMPK = test: Kinase selectivity screen; type: biochemical, rat
Description: The substantially less demanding synthesis of ICL-CCIC-0019 compared with MN58B bears additional advantages. […] This consequently diminished intracellular PCho concentration, and importantly, the incorporation of [^3H]-choline into lipids (Figure 1D). […] To assess kinase specificity, ICL-CCIC-0019 was tested against a panel of 131 human kinases (Figure 1E and Supplementary Table S1). […] Inhibition greater than 20% was attained for insulin-like growth factor 1 (IGF-1R, 35 ± 7% inhibition), mitogen-activated protein kinase-activated protein kinase 3 (MAPKAP-K3, 33 ± 6%), extracellular signal regulated kinase 8 (ERK8, 31 ± 4%), ribosomal S6 kinase 1 (RSK1, 22 ± 6%), and v-erb-a erythroblastic leukemia viral oncogene homolog 4 (HER4, 21 ± 7%).

HCT116 cells [5] = test: [3H]choline uptake in HCT116 cells; type: cell-based; conditions: Homo sapiens, HCT-116
Description: as §1

HCT116 cells [6] = test: Mitochondrial respiration (Seahorse XF24); type: cell-based, human; conditions: 10 μM
Description: Extracellular acidification and oxygen consumption rates (ECAR and OCR) were measured in a XF24 extracellular flux analyzer (Seahorse XF24 Extra Cellular Flux Analyzer, North Billerica, MA, USA). Basic XF assay medium was prepared as previously described supplemented with glucose, and the pH adjusted to 7.4 at 37°C. Indicated final concentrations of compounds were obtained by injecting appropriate amounts of compounds dissolved in DMSO or water and diluted in XF assay medium into ports. […] Indicated data points were obtained after 3 min mixing and 2 min wait, followed by 3 min of data collection. Data were normalized to the basal values.

Compound: CN(C)c1cc[n+](CCCCCCCCCCCC[n+]2ccc(N(C)C)cc2)cc1 [ICL-CCIC-0019]
- antiproliferative activity compared with CK37 (A549 cells): superior to CK37
- antiproliferative activity compared with MN58B (A549 cells): equipotent to MN58B
- GI50 (2 normal cell lines): 30 to 120 µM
- GI50 (8 cancer cell lines; read-out: GI50 range): 0.38 to 2.7 µM
- GI50 (8 cancer cell lines; read-out: mean GI50): 1.09 µM
- change of intracellular PCho pool (HCT116 cells [1]; 1 μM): −56%
- change of intracellular PCho pool (HCT116 cells [1]; 10 μM): −61%
- decrease in S-adenosylhomocysteine (SAH) (HCT116 cells [1]; HCT116 cells): 26%
- increase in SAM (HCT116 cells [1]; HCT116 cells): 11%
- increase of acetate uptake (HCT116 cells [2]): 10 fold
- TMRE-detectable mitochondrial membrane potential (HCT116 cells [3]): decreased
- mode of CHKA inhibition [4]: competitive with choline, but not ATP
- decrease of tumor K1 compared to control (HCT116 xenografts; 24 hours): 73%
- decrease of tumor K1 compared to control (HCT116 xenografts; 48 hours): 75%
- macro parameter Ki (net irreversible uptake rate) in tumor (HCT116 xenografts; 48 hours): significantly decreased
- % activity remaining (AMPK; AMPK, 10 μM): 109%
- direct effect on AMPK activity (AMPK; cell-free kinase assays): did not directly alter AMPK activity
- EC50 (HCT116 cells [5]): 0.98 ± 0.24 µM
- mitochondrial respiration immediately after adding inhibitor (acute effect) (HCT116 cells [6]): decreased mitochondrial respiration
